# Source: PubChem BioAssay AID2060622 (Molecular Pharmacology Branch, DTP, NCI, 2025)
# “And” between values parts separate entries of the source, which are not always exact repeats. Identical values can stand only once.
# Test system: 242566-281-R-J2-PDC complex spheroid viability
# Experiment: Anticancer human tumor 242566-281-R-J2-PDC patient-derived pancreatic carcinoma cell line growth inhibition [CLK]
# Settings: for viability, T/C: stronger effect = lower value
# Method in brief: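 Patient-derived tumor cells grown as complex spheroids with HUVEC endothelial cells and mesenchymal stem cells, treated with drug combinations. Concentrations descend in half-log steps from near clinical Cmax, or from 10 microM if Cmax unknown.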
# [1] = curve of first compound, second compound 0.0316 µM
# [2] = curve of first compound, second compound 0.1 µM
# [3] = curve of first compound, second compound 0.316 µM
# [4] = curve of first compound, second compound 1 µM
# [5] = curve of first compound, second compound 3.16 µM
# [6] = curve of first compound, second compound 10 µM
# [7] = second compound 0.0316 µM, first compound 0.0316 µM
# [8] = second compound 0.0316 µM, first compound 0.1 µM
# [9] = second compound 0.0316 µM, first compound 0.316 µM
# [10] = second compound 0.0316 µM, first compound 1 µM
# [11] = second compound 0.1 µM, first compound 0.0316 µM
# [12] = second compound 0.1 µM, first compound 0.1 µM
# [13] = second compound 0.1 µM, first compound 0.316 µM
# [14] = second compound 0.1 µM, first compound 1 µM
# [15] = second compound 0.316 µM, first compound 0.0316 µM
# [16] = second compound 0.316 µM, first compound 0.1 µM
# [17] = second compound 0.316 µM, first compound 0.316 µM
# [18] = second compound 0.316 µM, first compound 1 µM
# [19] = second compound 1 µM, first compound 0.0316 µM
# [20] = second compound 1 µM, first compound 0.1 µM
# [21] = second compound 1 µM, first compound 0.316 µM
# [22] = second compound 1 µM, first compound 1 µM
# [23] = second compound 3.16 µM, first compound 0.0316 µM
# [24] = second compound 3.16 µM, first compound 0.1 µM
# [25] = second compound 3.16 µM, first compound 0.316 µM
# [26] = second compound 3.16 µM, first compound 1 µM
# [27] = second compound 10 µM, first compound 0.0316 µM
# [28] = second compound 10 µM, first compound 0.1 µM
# [29] = second compound 10 µM, first compound 0.316 µM
# [30] = second compound 10 µM, first compound 1 µM
# 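Note: spheroids exposed to compounds for 7 days before readout.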
# 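Throughout, for viability, T/C: 100% = DMSO vehicle control wells.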
compound,measurement,setting,value
C=C(F)C(=O)N1CCN(c2nc(OCC3CCCN3C)nc3c2CCN(c2cccc4cccc(Cl)c24)C3)CC1CC#N (stereo unspecified),"viability, T/C",compound 0.0316 µM,88.1% and 109%
same,"viability, T/C",compound 0.1 µM,81.2% and 96.7%
same,"viability, T/C",compound 0.316 µM,70.4% and 103%
same,"viability, T/C",compound 1 µM,116% and 111%
same,"viability, T/C",compound 3.16 µM,103% and 83%
same,"viability, T/C",compound 10 µM,0.27% and 0.16%
same,IC50,curve of compound,5350 nM and 5000 nM
CC(CO)NC(=O)c1cc(-c2ccc(Cl)cc2)nn(-c2cnn(C)c2)c1=O (stereo unspecified) + CN1CCN(c2cc(C(=O)Nc3cc4cc(-c5cnn(C)c5)ccc4cn3)ccn2)CC1,IC50,[1],> 10000 nM
same,IC50,[2],> 10000 nM
same,IC50,[3],< 31.6 nM
same,IC50,[4],< 31.6 nM
same,IC50,[5],< 31.6 nM
same,IC50,[6],< 31.6 nM
same,"viability, T/C",[7],95.6%
same,"viability, T/C",[8],117%
same,"viability, T/C",[9],129%
same,"viability, T/C",[10],106%
same,"viability, T/C","second compound 0.0316 µM, first compound 3.16 µM",101%
same,"viability, T/C","second compound 0.0316 µM, first compound 10 µM",93.6%
same,"viability, T/C",[11],93.5%
same,"viability, T/C",[12],104%
same,"viability, T/C",[13],87.3%
same,"viability, T/C",[14],94%
same,"viability, T/C","second compound 0.1 µM, first compound 3.16 µM",101%
same,"viability, T/C","second compound 0.1 µM, first compound 10 µM",72.3%
same,"viability, T/C",[15],38.2%
same,"viability, T/C",[16],43%
same,"viability, T/C",[17],39.9%
same,"viability, T/C",[18],36.5%
same,"viability, T/C","second compound 0.316 µM, first compound 3.16 µM",41.5%
same,"viability, T/C","second compound 0.316 µM, first compound 10 µM",37.6%
same,"viability, T/C",[19],4.91%
same,"viability, T/C",[20],5.11%
same,"viability, T/C",[21],5.14%
same,"viability, T/C",[22],5.04%
same,"viability, T/C","second compound 1 µM, first compound 3.16 µM",4.52%
same,"viability, T/C","second compound 1 µM, first compound 10 µM",4.45%
same,"viability, T/C",[23],6.35%
same,"viability, T/C",[24],7.68%
same,"viability, T/C",[25],8.66%
same,"viability, T/C",[26],7.21%
same,"viability, T/C","second compound 3.16 µM, first compound 3.16 µM",7.5%
same,"viability, T/C","second compound 3.16 µM, first compound 10 µM",6.89%
same,"viability, T/C",[27],2.09%
same,"viability, T/C",[28],2.51%
same,"viability, T/C",[29],2.07%
same,"viability, T/C",[30],2.91%
same,"viability, T/C","second compound 10 µM, first compound 3.16 µM",2.05%
same,"viability, T/C","second compound 10 µM, first compound 10 µM",0.93%
COc1c(OCCCN2CCOCC2)ccc2c3n(c(=NC(=O)c4cnc(N)nc4)nc12)CCN3 + CN1CCN(c2cc(C(=O)Nc3cc4cc(-c5cnn(C)c5)ccc4cn3)ccn2)CC1,IC50,[1],25.5 nM
same,IC50,[2],19.4 nM
same,IC50,[3],< 3.16 nM
same,IC50,[4],< 3.16 nM
same,IC50,[5],< 3.16 nM
same,IC50,[6],< 3.16 nM
same,"viability, T/C","second compound 0.0316 µM, first compound 0.00316 µM",91%
same,"viability, T/C","second compound 0.0316 µM, first compound 0.01 µM",74.5%
same,"viability, T/C",[7],43.5%
same,"viability, T/C",[8],22.1%
same,"viability, T/C",[9],12.3%
same,"viability, T/C",[10],7.95%
same,"viability, T/C","second compound 0.1 µM, first compound 0.00316 µM",85.6%
same,"viability, T/C","second compound 0.1 µM, first compound 0.01 µM",69.5%
same,"viability, T/C",[11],34.6%
same,"viability, T/C",[12],18.1%
same,"viability, T/C",[13],9.35%
same,"viability, T/C",[14],6.4%
same,"viability, T/C","second compound 0.316 µM, first compound 0.00316 µM",34%
same,"viability, T/C","second compound 0.316 µM, first compound 0.01 µM",28.9%
same,"viability, T/C",[15],17.4%
same,"viability, T/C",[16],6.56%
same,"viability, T/C",[17],4.83%
same,"viability, T/C",[18],5.47%
same,"viability, T/C","second compound 1 µM, first compound 0.00316 µM",3.43%
same,"viability, T/C","second compound 1 µM, first compound 0.01 µM",3.63%
same,"viability, T/C",[19],3.24%
same,"viability, T/C",[20],2%
same,"viability, T/C",[21],1.83%
same,"viability, T/C",[22],1.24%
same,"viability, T/C","second compound 3.16 µM, first compound 0.00316 µM",6.71%
same,"viability, T/C","second compound 3.16 µM, first compound 0.01 µM",6.19%
same,"viability, T/C",[23],5.45%
same,"viability, T/C",[24],3.96%
same,"viability, T/C",[25],3.56%
same,"viability, T/C",[26],2.53%
same,"viability, T/C","second compound 10 µM, first compound 0.00316 µM",2.33%
same,"viability, T/C","second compound 10 µM, first compound 0.01 µM",2.32%
same,"viability, T/C",[27],1.35%
same,"viability, T/C",[28],1.56%
same,"viability, T/C",[29],1.19%
same,"viability, T/C",[30],1.26%
